The test system of series [1] is human SKI-DLCL-1 (de novo diffuse large B cell) non-Hodgkin's lymphoma xenografts. Briefly: Subcutaneous lymphoma xenograft treatment. The following applies: MTX 40 mg/kg. The series is classed as in vivo. The text has this: (§1) In order to study the effects of PDX on lymphoma growth in vivo, subcutaneous transplantation models in NOD/SCID mice were generated using three established human lymphoma cell line representative of aggressive transformed FL (RL) and de novo extranodal DLBCL (HT; SKI-DLCL-1) histologies. Six to eight week old non-obsese diabetic severe combined immunodeficient (NOD/SCID) mice (Jackson Laboratories, Bar Harbor, Me.) were sub-lethally irradiated with […] from a gamma source and inoculated with 10×10^6 lymphoma cells via a subcutaneous route. When tumor volumes approached 100 mm^3, mice were divided into three groups, averaging 3-8 mice per group. Mice were treated with normal saline or the maximum tolerated dose (MTD) of MTX (40 mg/kg) or PDX (60 mg/kg) via an intraperitoneal route twice weekly for two weeks (four total doses). […] (Sirotnak, et al., Cancer Chemother. Pharmacol. 12: 26-30 (1984); Sirotnak et al., Cancer Chemother. Pharmacol. 42: 313-318 (1998).
(§2) Engraftment rates in this experiment ranged from 80 to 90%. Palpable tumors formed under the skin approximately 7-10 days after inoculation and were readily measurable with calipers. Mice with subcutaneous lymphoma growths survived an average of 40-50 days after inoculation.

Series [2] deals with human HT (diffuse large B cell) non-Hodgkin's lymphoma xenografts. Briefly: Subcutaneous lymphoma xenograft treatment. The following applies: MTX 40 mg/kg; for Avg Tumor Diameter (mm ± SE): at the nadir of tumor regression. It counts as in vivo.
Excerpt: as §1, §2

The test system of series [3] is human RL (transformed follicular) non-Hodgkin's lymphoma xenografts. Briefly: Subcutaneous lymphoma xenograft treatment. The series is classed as in vivo. The following applies: MTX 40 mg/kg.
Excerpt: as §1, §2

For series [4], the system named is subcutaneous tumors of SKI. Put plainly: Preliminary combination xenograft experiment. The following applies: for tumor growth compared to the control: MTX 40 mg/kg (MTD), Ara-C 300 mg/kg (MTD) or combination at one-half the MTD, all sacrificed by week three. It counts as in vivo, irradiated NOD-SCID mice. On the procedure:
Given the experience that SKI-DLCL-1 is the most PDX resistant line in the panel, it was selected for these in vivo synergy experiments. […] All animals were treated with the maximum tolerated dose (MTD) of each drug, save the combination studies.

Series [5] deals with SKI-DLCL-1 lymphoma cells. Put plainly: Trypan Blue Exclusion cytotoxicity assay of single agents and combinations. It counts as cell-based, human. The following applies: MTX 10 nM, PDX 1 nM, Ara-C 40 nM, Gem 10 nM, control = 1. The text has this: As set forth in greater detail in the examples herein, combination therapy using PDX and gemcitabine has been tested in vitro and in in vivo model systems for efficacy against lymphoma. Table 1 sets forth data obtained in a cytotoxicity assay (Example 2) using SKI-DLCL-1 lymphoma cells. SKI-DLCL-1 is a diffuse large b cell lymphoma (DLBCL) cell line that is particularly resistant to PDX.
In Table 1, the additive effect is in each case the % of control for the single agents multiplied together. The expected additive effect for PDX+Gem is better than for MTX and ara-C, because the agents are individually better. What is observed for both MTX/AraC combinations and PDX/Gem combinations is that the actual result is better than the predicted additive result. The extent of this synergism is quantified in Table 1 as (actual-additive)/additive so that the amount of reduction that occurs through the use of the combination is expressed as a percentage of the expected additive benefit.
To evaluate cytotoxicity of combination of PDX and GEM, a Trypan Blue Exclusion Assay was performed by aliquoting 5×10^5 SKI-DLBCL cells into each well of a 24 well plate with a final volume of 1 milliliter. Each drug was added in duplicate to the plate wells as follows: alone (MTX 10 nM, PDX 1 nM, Ara-C 40 nM, or Gem 10 nM), PDX+Gem or MTX+Ara-C for 48 h (hours). For the scheduled administration of drug, PDX or MTX alone were dispensed in additional duplicate wells. After 24 hours Gem and Ara-C were added to these wells, respectively, and incubated for 48 hours. At the end of incubation, 20 l of each cell culture was added to 20 l of trypan blue, after which […] was added to a hemocytometer (Hausser Scientific, Horsham, Pa.), where viable cells were counted based upon the presence (dead cells) or exclusion (live cells) of dye.

For series [6] the following is noted: cited from earlier work.
Another series relates to SKI-DLBCL-1 xenograft. Briefly: Second combination xenograft experiment (FIG. 5). The following applies: SKI-DLBCL; PDX and Gem at one-quarter of the MTD (15 mg/kg); MTX, Ara-C alone at MTD; ip twice weekly, 4 doses. How it is done:
(§3) The same type of test was repeated to assess the in vivo efficacy of using combination therapies. […] Schedule dependent treatment was also determined by pretreating animals with PDX or MTX followed 24 hours later with Gem or Ara-C, respectively. One cohort of animals was treated with Gem followed by PDX. In all cases, the control animals received intraperitoneal injections of normal saline.
(§4) Tumor bearing mice were assessed for weight loss and tumor volume at least twice weekly for the duration of the experiment. The data are expressed as the average tumor volume (mm3) per group as a function of time. Tumors were assessed by measuring the two largest perpendicular axes (l=length, w=width) with standard calipers. Tumor volume was calculated using the formula 4/3 πr^3 where r=(l+w)/4. Animals were sacrificed when one dimensional tumor diameter exceeded 2.0 cm, or after loss of more than 10% of their body weight in accordance with institutional guidelines. Animals were housed in standard shoe box cages in temperature and humidity constant rooms on a 12 hour light and dark cycle. Food and water were supplied ad libitum. Animals were maintained in core animal facilities under an institute approved animal protocol.

Series [7] concerns caspase 3 in SKI-DLCL-1 cells. Briefly: Caspase 3 activation (EnzChek Caspase-3 Assay Kit #2, Z-DEVD-R110 cleavage). It counts as cell-based, human. The following applies: for Fluorescence at 485ex/527em: 1 nM, control 134.3; for Difference from control: fluorescence at 485ex/527em.
Protocol: To further evaluate the activity of PDX and Gem combinations, Caspase activity was tested by EnzChek® Caspase-3 Assay Kit #2 (Molecular Probes) based upon the fluorometric detection of caspase-dependent Z-DEVD-R110 cleavage (rhodamine 110 bis-[N-CBZ-L-aspartyl-L-glutamyl-L-valyl-L-aspartic acid amide], a non-fluorescent bisamide), which, via a two step process, first yields the monoamide product (weakly fluorescent) and then the fluorescent product R110 (rhodamine 110, strongly fluorescent). Detection was performed on a Fluoroskan Ascent FL fluorescent plate reader (Thermo Lab Systems, Helsinki, Finland) according to the manufacturer's guidelines.
The next series relates to SKI-DLCL-1 cells. Briefly: Induction of apoptosis (YO-PRO-1/propidium iodide flow cytometry). It counts as cell-based, human. The following applies: all drugs 1 nM, total exposure 72 hours, sequential: first drug 24 hours prior to second. How it is done: Ara-C, PDX and Gem in combined and scheduled exposures. In each case, the total exposure time was 72 hours. In sequential treatments, the first drug was administered 24 hours prior to the second drug.
To assess apoptosis occurring as a result of combination therapies, apoptosis was assessed using two well standardized techniques. In the first (YO-PRO), cell membrane permeability was determined by measuring fluorescence of treated and control cells. 2×10^7 SKI-DLBCL cells were treated with either MTX, Ara-C, Gem or PDX alone or combinations of drug given together or scheduled. All drugs were assayed at equimolar concentrations (i.e. 1 nM). The incubation conditions were modeled after the in vitro cytotoxicity experiments. Single agent drugs or combinations of all drugs studied without schedule considerations were incubated for 72 hours, while drugs that were studied in some schedule were introduced in a 24+48 incubation scheme (i.e. drug B added 24 hours following drug A, then incubated for an additional 48 hours for a total incubation time of 72 hours). Cells were then collected, washed twice and re-suspended at a concentration of 1×10^6/mL in DPBS. Membrane permeability was detected via the differential cellular permeability of the fluorescent dyes YO-PRO®-1 and propidium iodide by flow cytometry, as per the manufacturer's guidelines (Vybrant apoptosis kit #4, Molecular Probes, Eugene, Oreg.). In addition to monitoring apoptosis, cell cycle kinetic analyses were also performed on all treated cells based the propidium iodide binding. Apoptotic cells were noted to be permeable to the green fluorescent dye YO-PRO®-1 (em 530, FL-1), and impermeable to the red fluorescent dye propidium iodide (em 575, FL-3). Typically, […] cells allow the entrance of both dyes, whereas living cells are impermeable to both dyes.
Background: In flow cytometry, cells or beads pass a laser one at a time.

The next series has as its system SKI-DLBCL-1 xenografts. Put plainly: TUNEL immunohistochemical staining for apoptosis in xenografts. It counts as in vivo, mice. The following applies: day 21; four doses on days 0, 3, 7 and 10; MTX 40 mg/kg, PDX 60 mg/kg. How it is done:
Immunohistochemical staining for apoptosis as measured by terminal deoxynucleotide transferase-mediated nick end-labeling (TUNEL) was performed on SKI-DLBCL-1 xenografts from mice sacrificed at day 21 following initiation of antifolate therapy. Mice received four doses of saline, MTX (40 mg/kg) or PDX (60 mg/kg) on days 0, 3, 7 and 10.

Series [8] in a line: Second combination xenograft experiment (FIG. 5). The following applies: SCID beige (CBSCBG-MM double), mouse, in vivo, ip. On the procedure:
as §3, §4

Where [9] appears, read: PDX 60 mg/kg ip twice weekly for two weeks.

The structures appear in SMILES notation.

This is an account of results in patent US7939530B2, “Treatment of lymphoma using 10-propargyl-10-deazaaminopterin and gemcitabine” (Sloan-Kettering Institute for Cancer Research, priority 2004, dated 2011).

As for `CN(Cc1cnc2nc(N)nc(N)c2n1)c1ccc(C(=O)N[C@@H](CCC(=O)O)C(=O)O)cc1` [MTX, methotrexate], in series [1] (PDX 60 mg/kg), the “Complete Regression (no/total)” value is reported as 0/10 and the “tumor regressions / complete remissions (% of mice)” value is “no regressions”. In addition, in [1] (setting [9]), the “Avg Tumor Diameter (mm ± SE)” value is reported as 9.5 ± 0.4 mm and the “Avg change in Tumor Volume (mm^3 ± SE)” value is reported as “+299 ± 58 mm^3”. Also, in series [2] (PDX 60 mg/kg), the “Complete Regression (no/total)” value was 0/7, the “complete tumor regression (% of mice)” value is listed as “no tumor regression” and the “Avg Tumor Diameter (mm ± SE)” value is recorded as 8.7 ± 2.0 mm. For the same compound, the “Avg change in Tumor Volume (mm^3 ± SE)” value in series [2] (setting [9]) is recorded as “+300 ± 225 mm^3”. Also, in [2] (PDX 60 mg/kg, listed as MDX), the “Avg Tumor Diameter (mm ± SE)” value came out at 8.7 mm. Besides, in series [3] (PDX 60 mg/kg), the “Complete Regression (no/total)” value is on record as 0/12 and the “tumor regressions (% of mice)” value is reported as “no regressions”. For the same compound, in series [3] (setting [9]), the “Avg Tumor Diameter (mm ± SE)” value is listed as 10.9 ± 0.5 mm and the “Avg change in Tumor Volume (mm^3 ± SE)” value was “+619 ± 108 mm^3”. Moreover, the “tumor growth compared to the control” value in series [4] is on record as “modest growth delay”. The fraction of control in series [5] is 0.92. Also, in series [6] (intraperitoneal, twice weekly for two weeks), the “maximum tolerated dose (MTD)” value is reported as 40 mg/kg. Also, in [6] (nude mice), the “toxic deaths at the MTD” value is given as “no toxic deaths”. The “xenograft outcome in words” value in the series with SKI-DLBCL-1 xenograft is recorded as “sacrificed early due to excessive tumor growth”. For the same compound, in series [7], the “Fluorescence at 485ex/527em” value turned out to be 131 and the Difference from control is on record as −3.3. In addition, the “% change in apoptosis” value with SKI-DLCL-1 cells is −12.24%. In the series with SKI-DLBCL-1 xenografts, the “apoptotic cells in tumor tissue (TUNEL)” value was “little or no evidence of apoptotic cells”.
As for `Nc1ccn([C@@H]2O[C@H](CO)[C@@H](O)[C@@H]2O)c(=O)n1` [Ara-C, cytarabine], the “tumor growth compared to the control” value in series [4] is listed as “modest growth delay”. For the same compound, the fraction of control in [5] was 0.76. Besides, the MTD at 2 weeks in series [8] was 300 mg/kg. Further, the “xenograft outcome in words” value in the series on SKI-DLBCL-1 xenograft is recorded as “sacrificed early due to excessive tumor growth”. For the same compound, in series [7], the “Fluorescence at 485ex/527em” value stood at 141.1 and the Difference from control was found to be 6.8. The “% change in apoptosis” value with SKI-DLCL-1 cells was −3.08%.
With `Nc1ccn([C@@H]2O[C@H](CO)[C@@H](O)C2(F)F)c(=O)n1` [Gem, 1-(2′,2′-difluoro-β-D-arabinofuranosyl) cytosine], the “tumor volume as % of initial tumor volume” value in [4] (60 mg/kg, regrowth by day 44 after initial response) was determined as 318%. In addition, the fraction of control in series [5] is listed as 0.72. The MTD at 2 weeks in series [8] turned out to be 60 mg/kg. In series [7], the “Fluorescence at 485ex/527em” value was 195.4 and the Difference from control is given as 61.1. For the same compound, the “% change in apoptosis” value in the series with SKI-DLCL-1 cells came out at 33.76%.
